Reference: patent US4745100A, “Stimulation of tear secretion” (Eye Research Institute of Retina Foundation, priority 1986, dated 1988)
Entries after “also recorded” stand apart in the source; their conditions may differ. No end group written: not given here.

Legend:
rabbits with dry eyes = test: Tear film osmolality in dry eye rabbit after topical test drop; format: in vivo; details: 10 μl topical drop
Experimental: In vivo examples of the invention were conducted on rabbits with dry eyes. The dry eye disorder is created by surgically closing the duct that carries fluid from the main lacrimal gland to the tear film and surgically removing the nictitans and harderian glands. This leaves intact only the accessory glands that lie on the ocular surface. These rabbits develop increased tear film osmolality soon after the operation, a finding that is understood to be due to decreased tear production, and that is characteristic of dry eye. It is recognized that results of ophthalmologic tests using rabbits has close correlation with humans, and therefore the results carry over to humans.
The effect of topically applied isotonic buffer solution with and without VIP on tear film osmolality was studied in the dry eye rabbit. All test drops were ten μl in volume and were applied in each case six minutes after the instillation of proparacaine, which anesthetizes the surface of the eye and prevents reflex tearing. Tear samples were taken with a micropipette system, in the manner described in the article entitled "Osmolarity of Tear Microvolumes in Keratoconjunctivitis Sicca", by Gilbard et al, Arch Ophthalmol 96:677, 1978. Osmolality was measured by freezing-point depression.
The following protocol was used for each drop tested. Six minutes prior to instillation of the test drop proparacaine was instilled. At zero time a tear sample was taken for measurement of osmolality. At one minute the test drop was instilled. At six and at sixteen minutes, tear samples were taken for osmolality measurements. The procedure for instilling each test drop is that the drop of buffered solution was first instilled in the dry eye and measurements were taken followed by a drop of buffered solution containing VIP. The following test drops were instilled: (1) buffer solution, (2) buffer solution containing 2×10^-8 M VIP, (3) buffer solution, (4) buffer solution containing 2×10^-7 M VIP, (5) buffer solution, (6) buffer solution containing 2×10^-6 M VIP. The results are shown in FIGS. 1A, 1B, and 1C and FIGS. 2A, 2B, and 2C, where FIGS. 1 and 2 each represent the results obtained from the same rabbit.
In separate experiments, the effect of topically applied isotonic buffer solution with or without glucagon or secretin on tear film osmolality was studied in dry eye rabbits. All test drops were ten microliters in volume. Tear osmolality was measured one minute prior to drop instillation and five and fifteen minutes after drop instillation. A drop of buffered solution was first instilled in the dry eye and measurements were taken followed by a drop of buffered solution containing glucagon or secretin, depending on the test.

[1] = additives needed; cited from earlier work
[2] = tested on: main (orbital) lacrimal gland; details: administered intravenously to rabbits; cited from earlier work
[3] = tested on: rat exorbital lacrimal gland; details: cited from earlier work
dry eye rabbits = test: Elimination of tracer Tc99m (sodium pertechnetate) from the tear film of dry eye rabbits; format: in vivo, rabbit; details: VIP 2×10^-6 M in 10 μl radioactive buffer
Experimental: In a separate example, dry eye rabbits were studied by examining the rate of elimination of a tracer substance technectium, Tc^99m, as sodium pertechnetate from the tear film. Essentially equivalent counts of Tc^99m were placed in ten microliters of, in some instances, a buffer solution to serve as a control, and in other instances, a buffer solution containing 2×10^-6 M VIP. Radioactivity present in the tear film was measured over contiguous fifteen second periods for thirty minutes with a gamma camera, and the measurements stored on a computer. The following protocol was used: Rabbits were anesthetized with IM rompun and ketamine. At zero time proparacaine was applied. At five minutes, the radioactive buffer with VIP was instilled in the eye. Radioactivity present in the tear film was then recorded as described. After thirty minutes, proparacaine was again instilled in the eye and the procedure repeated with radioactive buffer alone. […] This increased rate of tracer washout is understood to be indicative of increased tear secretion. In a second similar experiment, the effect of VIP was first tested, and then radioactive buffer alone, and then the effect of VIP again.

lacrimal gland = details: administered intra-arterially; cited from earlier work

glucagon
effect on tear film osmolality versus buffer solution alone (rabbits with dry eyes; glucagon 2×10^-6, 2×10^-5, 2×10^-4 M, 5 and 15 min after drop, FIG. 6): lowers tear film osmolality more effectively than buffer solution alone; also recorded: dose-dependent decrease in tear film osmolality
solubility [1]: requires the additives glycerin and lactose to render it soluble

secretin
effect on tear film osmolality versus buffer solution alone (rabbits with dry eyes; secretin 2×10^-7, 2×10^-6, 2×10^-5 M, 5 and 15 min after drop, FIG. 7): lowers tear film osmolality more effectively than buffer solution alone; also recorded: dose-dependent decrease in tear film osmolality

vasoactive intestinal peptide (HSDAVFTDNYTRLRKQMAVKKYLNSILN; ends and bridges not checked; UniProt P01282 125-152, looked up) [VIP]
main (orbital) lacrimal gland secretion [2]: can stimulate main (orbital) lacrimal gland secretion
protein secretion in vitro [3]: stimulate protein secretion in vitro
effect on tear film osmolality versus placebo, same experiment as CCK (rabbits with dry eyes; VIP 2×10^-6 M, FIGS. 3A, 3B): decreased tear film osmolality more effectively than a placebo in one of two trials
effect on tear film osmolality versus buffer solution alone (rabbits with dry eyes; VIP 2×10^-8, 2×10^-7, 2×10^-6 M, samples at 6 and 16 min, FIGS. 1 and 2): lowers the tear film osmolality more effectively than buffer solution alone; also recorded: dose-dependent decrease in tear film osmolality
slope of the elimination curve of Tc99m from tear film, first 15 minutes (dry eye rabbits; topical, dry eye rabbit, placebo -0.82, FIG. 4): -1.65
slope of the elimination curves versus radioactive buffer alone, second experiment (dry eye rabbits; two VIP tests, FIG. 5): substantially steeper than for radioactive buffer alone
lacrimal gland secretion (lacrimal gland): stimulate lacrimal gland secretion

B1: Cholecystokinin (peptide, UniProt P06307 21-115, looked up)
Cholecystokinin: QPVPPADPAGSGLQRAEEAPRRQLRVSQRTDGESRAHLGALLARYIQQARKAPSGRMSIVKNLQNLDPSHRISDRDYMGWMDFGRRSAEEYEYPS
modifications: Cholecystokinin
notes: gastrointestinal hormone tested topically as comparison
effect on tear osmolality versus placebo (rabbits with dry eyes; CCK 2×10^-4 M, FIG. 3B): did not lower tear osmolality more effectively than a placebo
lacrimal gland secretion (lacrimal gland): stimulate lacrimal gland secretion
